From ChEMBL document CHEMBL5104192, “Late-Stage Functionalization with Cysteine Staples Generates Potent and Selective Melanocortin Receptor-1 Agonists” (J Med Chem, 2022)
*1 amine or outer side, *2 acyl side, *3 side chain or, on linkers, in order; H or OH if unused. Where a SMILES comes first, the peptide text is derived from it. Bridges are numbered along the chain shown (N, C = ends). [ ]: non-standard residue; d: D form. X2 = NCCOCCOCCNC(=O)OCC1C2CCc3c([*:1])nnc([*:2])c3CCC21; Maleimide(3,4-diyl) = O=C1NC(=O)C([*:2])=C1[*:1]; C6F4(1,4-diyl) = Fc1c(F)c([*:2])c(F)c(F)c1[*:1]; mXylylene = c1cc(C[*:1])cc(C[*:2])c1; oXylylene = c1ccc(C[*:2])c(C[*:1])c1; pXylylene = c1cc(C[*:2])ccc1C[*:1]; NMeR = CN[C@@H](CCCNC(=N)N)C(=O)O; CH2COCH2 = O=C(C[*:1])C[*:2]; X1 = n1nc([*:2])nnc1[*:1]; Nle = CCCC[C@H](N)C(=O)O

Columns and labels:
[1] = molecular target: T1, Melanocyte-stimulating hormone receptor (Homo sapiens, UniProt Q01726); experiment: Agonist activity at human MC1R expressed in HEK2936E cells assessed as cAMP production in presence of IBMX by time resolved fluorescence assay; assay type: functional, cell-based
T1 sequence (Q01726 whole entry): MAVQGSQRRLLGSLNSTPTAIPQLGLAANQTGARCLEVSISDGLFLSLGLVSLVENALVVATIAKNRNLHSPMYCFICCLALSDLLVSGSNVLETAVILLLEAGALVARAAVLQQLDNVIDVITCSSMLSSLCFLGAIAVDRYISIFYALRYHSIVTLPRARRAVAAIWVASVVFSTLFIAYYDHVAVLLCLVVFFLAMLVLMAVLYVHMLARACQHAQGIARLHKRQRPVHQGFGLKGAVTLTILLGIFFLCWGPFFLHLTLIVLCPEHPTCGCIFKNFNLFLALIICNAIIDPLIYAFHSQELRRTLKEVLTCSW

Melanocortin receptor 4 [2] = molecular target: T2, Melanocortin receptor 4 (Homo sapiens, UniProt P32245); experiment: Agonist activity at human MC4R expressed in HEK2936E cells assessed as cAMP production in presence of IBMX by time resolved fluorescence assay; assay type: functional, cell-based
T2 sequence (P32245 whole entry): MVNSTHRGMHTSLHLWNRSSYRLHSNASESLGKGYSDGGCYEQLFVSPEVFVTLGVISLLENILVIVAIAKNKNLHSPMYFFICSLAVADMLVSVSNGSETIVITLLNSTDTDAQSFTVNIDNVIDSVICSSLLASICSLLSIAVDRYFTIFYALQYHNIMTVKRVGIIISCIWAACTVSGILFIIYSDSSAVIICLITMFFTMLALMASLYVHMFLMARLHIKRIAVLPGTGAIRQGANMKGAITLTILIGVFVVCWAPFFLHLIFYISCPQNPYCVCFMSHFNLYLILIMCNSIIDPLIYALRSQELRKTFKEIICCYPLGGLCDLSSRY

Homo sapiens [3] = species on record: Homo sapiens; experiment: Selectivity ratio of Ki for human MC4R to Ki for human MC1R
Melanocortin receptor 3 [4] = molecular target: T3, Melanocortin receptor 3 (Homo sapiens, UniProt P41968); experiment: Agonist activity at human MC3R expressed in HEK2936E cells assessed as cAMP production in presence of IBMX by time resolved fluorescence assay; assay type: functional, cell-based
T3 sequence (P41968 whole entry): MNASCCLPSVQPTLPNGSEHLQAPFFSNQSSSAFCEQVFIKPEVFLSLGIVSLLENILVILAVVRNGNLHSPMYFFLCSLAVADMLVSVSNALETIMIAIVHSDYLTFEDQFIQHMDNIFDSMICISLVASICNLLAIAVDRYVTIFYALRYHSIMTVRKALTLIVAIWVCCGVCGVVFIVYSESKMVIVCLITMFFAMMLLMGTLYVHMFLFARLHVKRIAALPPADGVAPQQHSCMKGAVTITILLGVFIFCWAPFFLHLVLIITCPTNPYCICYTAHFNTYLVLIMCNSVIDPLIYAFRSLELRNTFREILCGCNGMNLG

Homo sapiens [5] = species on record: Homo sapiens; experiment: Selectivity ratio of Ki for human MC3R to Ki for human MC1R
Homo sapiens [6] = species on record: Homo sapiens; experiment: Selectivity ratio of EC50 for human MC4R to EC50 for human MC1R
[7] = molecular target: T1, Melanocyte-stimulating hormone receptor; experiment: Displacement of [125I]-NDP-alpha-MSH from human MC1R expressed in HEK2936E cell membrane measured after 16 to 23 hrs by 1450 microbeta trilux scintillation proximity assay; assay type: cell membranes
Homo sapiens [8] = species on record: Homo sapiens; experiment: Selectivity ratio of EC50 for human MC3R to EC50 for human MC1R
Melanocortin receptor 3 [9] = molecular target: T3, Melanocortin receptor 3; experiment: Displacement of [125I]-NDP-alpha-MSH from human MC3R expressed in HEK2936E cell membrane measured after 16 to 23 hrs by 1450 microbeta trilux scintillation proximity assay; assay type: cell membranes
Melanocortin receptor 4 [10] = molecular target: T2, Melanocortin receptor 4; experiment: Displacement of [125I]-NDP-alpha-MSH from human MC4R expressed in HEK2936E cell membrane measured after 16 to 23 hrs by 1450 microbeta trilux scintillation proximity assay; assay type: cell membranes

Row | EC50 ([1]; read-out: pEC50 (converted)) [nM] | EC50 (Melanocortin receptor 4 [2]) [nM] | Ratio Ki (Homo sapiens [3]) | EC50 (Melanocortin receptor 3 [4]) [nM] | Ratio Ki (Homo sapiens [5]) | Ratio EC50 (Homo sapiens [6]) | Ki [7] [nM] | Ratio EC50 (Homo sapiens [8]) | Ki (Melanocortin receptor 3 [9]) [nM] | Ki (Melanocortin receptor 4 [10]) [nM] | EC50 ([1]; read-out: EC50) [nM] | Structure (SMILES)
1 | 8.71 | 60.3 | 2 | 39.8 | 20 | 7 | 195 | 5 | 3980 | 347 | – | CC[C@H](C)[C@@H]1NC(=O)[C@@H]2CCCN2C(=O)[C@H](Cc2c[nH]c3ccccc23)NC(=O)[C@H](CCCNC(=N)N)N(C)C(=O)[C@H](Cc2ccccc2)NC(=O)[C@H](Cc2cnc[nH]2)NC(=O)[C@H]([C@@H](C)O)NC(=O)[C@@H](NC(C)=O)CSSC[C@@H](C(N)=O)NC1=O (Ac-CTHF[NMeR]WPIC-NH2; disulfide 1-9)
2 | 2.95 | 302 | 12 | 195 | 83 | 103 | 110 | 66 | 9120 | 1290 | – | CC[C@H](C)[C@@H]1NC(=O)[C@@H]2CCCN2C(=O)[C@H](Cc2c[nH]c3ccccc23)NC(=O)[C@H](CCCNC(=N)N)N(C)C(=O)[C@H](Cc2ccccc2)NC(=O)[C@H](Cc2cnc[nH]2)NC(=O)[C@H]([C@@H](C)O)NC(=O)[C@@H](NC(C)=O)CSCc2cccc(c2)CSC[C@@H](C(N)=O)NC1=O (Ac-CTHF[NMeR]WPIC-NH2; linker 1-9 via mXylylene)
3 | 1.86 | 398 | 33 | 295 | 191 | 212 | 64.6 | 58 | 12300 | 2140 | – | CC[C@H](C)[C@@H]1NC(=O)[C@@H]2CCCN2C(=O)[C@H](Cc2c[nH]c3ccccc23)NC(=O)[C@H](CCCNC(=N)N)N(C)C(=O)[C@H](Cc2ccccc2)NC(=O)[C@H](Cc2cnc[nH]2)NC(=O)[C@H]([C@@H](C)O)NC(=O)[C@@H](NC(C)=O)CSCc2ccccc2CSC[C@@H](C(N)=O)NC1=O (Ac-CTHF[NMeR]WPIC-NH2; linker 1-9 via oXylylene)
4 | 5.13 | 309 | 7 | 162 | 87 | 60 | 112 | 32 | 9770 | 759 | – | CC[C@H](C)[C@@H]1NC(=O)[C@@H]2CCCN2C(=O)[C@H](Cc2c[nH]c3ccccc23)NC(=O)[C@H](CCCNC(=N)N)N(C)C(=O)[C@H](Cc2ccccc2)NC(=O)[C@H](Cc2cnc[nH]2)NC(=O)[C@H]([C@@H](C)O)NC(=O)[C@@H](NC(C)=O)CSCc2ccc(cc2)CSC[C@@H](C(N)=O)NC1=O (Ac-CTHF[NMeR]WPIC-NH2; linker 1-9 via pXylylene)
5 | 0.339 | 8.13 | 25 | 0.229 | 6 | 35 | 3.31 | 1 | 20.9 | 81.3 | – | CCCC[C@@H]1NC(=O)[C@@H]2CSSC[C@H](NC(=O)[C@H](CCCNC(=N)N)NC(=O)[C@H](CC(=O)O)NC(=O)[C@H](Cc3c[nH]c4ccccc34)NC(=O)[C@H](CCCNC(=N)N)NC(=O)[C@H](Cc3ccccc3)NC(=O)[C@H](Cc3cnc[nH]3)NC(=O)CNC1=O)C(=O)N[C@@H](Cc1cnc[nH]1)C(=O)N[C@@H](Cc1ccccc1)C(=O)N[C@@H](CCCNC(=N)N)C(=O)N[C@@H](Cc1c[nH]c3ccccc13)C(=O)N[C@@H](CCCNC(=N)N)C(=O)N2 (cyclo(CHFRWRC[Nle]GHFRWDR); disulfide 1-7)
6 | 0.123 | 3.55 | 58 | 0.275 | 15 | 29 | 0.794 | 2 | 11.7 | 45.7 | – | CCCC[C@@H]1NC(=O)[C@@H]2CSc3c(F)c(F)c(c(F)c3F)SC[C@H](NC(=O)[C@H](CCCNC(=N)N)NC(=O)[C@H](CC(=O)O)NC(=O)[C@H](Cc3c[nH]c4ccccc34)NC(=O)[C@H](CCCNC(=N)N)NC(=O)[C@H](Cc3ccccc3)NC(=O)[C@H](Cc3cnc[nH]3)NC(=O)CNC1=O)C(=O)N[C@@H](Cc1cnc[nH]1)C(=O)N[C@@H](Cc1ccccc1)C(=O)N[C@@H](CCCNC(=N)N)C(=O)N[C@@H](Cc1c[nH]c3ccccc13)C(=O)N[C@@H](CCCNC(=N)N)C(=O)N2 (cyclo(CHFRWRC[Nle]GHFRWDR); linker 1-7 via C6F4(1,4-diyl))
7 | 0.55 | 7.24 | 21 | 0.692 | 11 | 13 | 2.09 | 1 | 23.4 | 43.7 | – | CCCC[C@@H]1NC(=O)[C@@H]2CSCC(=O)CSC[C@H](NC(=O)[C@H](CCCNC(=N)N)NC(=O)[C@H](CC(=O)O)NC(=O)[C@H](Cc3c[nH]c4ccccc34)NC(=O)[C@H](CCCNC(=N)N)NC(=O)[C@H](Cc3ccccc3)NC(=O)[C@H](Cc3cnc[nH]3)NC(=O)CNC1=O)C(=O)N[C@@H](Cc1cnc[nH]1)C(=O)N[C@@H](Cc1ccccc1)C(=O)N[C@@H](CCCNC(=N)N)C(=O)N[C@@H](Cc1c[nH]c3ccccc13)C(=O)N[C@@H](CCCNC(=N)N)C(=O)N2 (cyclo(CHFRWRC[Nle]GHFRWDR); linker 1-7 via CH2COCH2)
8 | 0.288 | 5.01 | 22 | 0.398 | 8 | 17 | 3.63 | 1 | 28.2 | 81.3 | – | CCCC[C@@H]1NC(=O)[C@@H]2CSC3=C(SC[C@H](NC(=O)[C@H](CCCNC(=N)N)NC(=O)[C@H](CC(=O)O)NC(=O)[C@H](Cc4c[nH]c5ccccc45)NC(=O)[C@H](CCCNC(=N)N)NC(=O)[C@H](Cc4ccccc4)NC(=O)[C@H](Cc4cnc[nH]4)NC(=O)CNC1=O)C(=O)N[C@@H](Cc1cnc[nH]1)C(=O)N[C@@H](Cc1ccccc1)C(=O)N[C@@H](CCCNC(=N)N)C(=O)N[C@@H](Cc1c[nH]c4ccccc14)C(=O)N[C@@H](CCCNC(=N)N)C(=O)N2)C(=O)NC3=O (cyclo(CHFRWRC[Nle]GHFRWDR); linker 1-7 via Maleimide(3,4-diyl))
9 | 0.0447 | 1.78 | 47 | 0.182 | 15 | 40 | 0.724 | 4 | 11 | 33.9 | 0.004 | CCCC[C@@H]1NC(=O)[C@@H]2CSc3nnc(nn3)SC[C@H](NC(=O)[C@H](CCCNC(=N)N)NC(=O)[C@H](CC(=O)O)NC(=O)[C@H](Cc3c[nH]c4ccccc34)NC(=O)[C@H](CCCNC(=N)N)NC(=O)[C@H](Cc3ccccc3)NC(=O)[C@H](Cc3cnc[nH]3)NC(=O)CNC1=O)C(=O)N[C@@H](Cc1cnc[nH]1)C(=O)N[C@@H](Cc1ccccc1)C(=O)N[C@@H](CCCNC(=N)N)C(=O)N[C@@H](Cc1c[nH]c3ccccc13)C(=O)N[C@@H](CCCNC(=N)N)C(=O)N2 (cyclo(CHFRWRC[Nle]GHFRWDR); linker 1-7 via X1)
10 | < 0.00912 | 1.12 | 347 | 0.107 | 89 | 123 | 0.0575 | 12 | 5.13 | 20 | < 0.009 | CCCC[C@@H]1NC(=O)[C@@H]2CSc3nnc(c4c3CCC3C(CC4)C3COC(=O)NCCOCCOCCN)SC[C@H](NC(=O)[C@H](CCCNC(=N)N)NC(=O)[C@H](CC(=O)O)NC(=O)[C@H](Cc3c[nH]c4ccccc34)NC(=O)[C@H](CCCNC(=N)N)NC(=O)[C@H](Cc3ccccc3)NC(=O)[C@H](Cc3cnc[nH]3)NC(=O)CNC1=O)C(=O)N[C@@H](Cc1cnc[nH]1)C(=O)N[C@@H](Cc1ccccc1)C(=O)N[C@@H](CCCNC(=N)N)C(=O)N[C@@H](Cc1c[nH]c3ccccc13)C(=O)N[C@@H](CCCNC(=N)N)C(=O)N2 (some centres not stated) (cyclo(CHFRWRC[Nle]GHFRWDR); linker 1-7 via X2)
